Earlier results as cited in US7511157B2, “Hepatitis C inhibitor dipeptide analogs” (Boehringer Ingelheim International GmbH, priority 2004, dated 2009).

Tested on: hepatitis C virus
Conditions: two day clinical trial; Gastroenterology (2004) 127(5): 1347-1355

COc1ccc2c(O[C@@H]3C[C@H]4C(=O)N[C@]5(C(=O)O)C[C@H]5/C=C\CCCCC[C@H](NC(=O)OC5CCCC5)C(=O)N4C3)cc(-c3csc(NC(C)C)n3)nc2c1 [BILN 2061]
reduction of viral loads in patients: effective in rapidly reducing viral loads
